According to ChEMBL document CHEMBL1140438, “Ligand recognition by RAR and RXR receptors: binding and selectivity” (J Med Chem, 2005):

Legend:
[1] = biological target: T1, Retinoic acid receptor gamma (Homo sapiens, UniProt P13631); assay: Dissociation constant for Retinoic acid receptor gamma; Not an active agonist; type: functional
T1 sequence (P13631 whole entry): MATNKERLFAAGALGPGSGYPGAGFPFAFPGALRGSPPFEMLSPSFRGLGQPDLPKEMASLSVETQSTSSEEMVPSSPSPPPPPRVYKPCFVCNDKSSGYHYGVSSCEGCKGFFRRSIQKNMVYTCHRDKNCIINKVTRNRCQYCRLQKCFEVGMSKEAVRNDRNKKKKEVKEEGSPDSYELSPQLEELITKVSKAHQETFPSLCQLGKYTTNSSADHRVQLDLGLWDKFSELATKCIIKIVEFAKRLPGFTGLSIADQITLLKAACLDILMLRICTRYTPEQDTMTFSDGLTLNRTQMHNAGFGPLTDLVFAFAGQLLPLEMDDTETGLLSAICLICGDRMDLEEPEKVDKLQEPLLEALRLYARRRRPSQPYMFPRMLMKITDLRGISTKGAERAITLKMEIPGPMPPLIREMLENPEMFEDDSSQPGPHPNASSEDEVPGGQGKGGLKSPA

[2] = biological target: T1, Retinoic acid receptor gamma
[3] = biological target: T2, Retinoic acid receptor RXR-alpha (Homo sapiens, UniProt P19793); assay: Dissociation constant for Retinoid X receptor alpha
T2 sequence (P19793 whole entry): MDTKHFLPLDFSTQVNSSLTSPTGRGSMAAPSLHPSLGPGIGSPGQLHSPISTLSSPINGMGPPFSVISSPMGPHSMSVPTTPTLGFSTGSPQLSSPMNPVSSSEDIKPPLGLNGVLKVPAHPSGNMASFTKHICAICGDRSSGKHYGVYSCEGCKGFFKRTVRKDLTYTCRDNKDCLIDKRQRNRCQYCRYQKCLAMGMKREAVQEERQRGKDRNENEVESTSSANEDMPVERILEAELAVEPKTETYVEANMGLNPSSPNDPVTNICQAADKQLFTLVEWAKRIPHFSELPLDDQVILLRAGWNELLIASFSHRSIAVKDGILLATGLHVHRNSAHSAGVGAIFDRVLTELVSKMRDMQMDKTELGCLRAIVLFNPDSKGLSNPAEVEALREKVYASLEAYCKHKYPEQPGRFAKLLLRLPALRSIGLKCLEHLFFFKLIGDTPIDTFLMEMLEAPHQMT

Structure (SMILES)	Kd [1]	Kd [2] [µM]	Kd [3] [µM]
Cc1cc2c(cc1-c1cc(/C=C3\SC(=O)NC3=O)ccc1OC(F)(F)F)C(C(C)C)=CCC2(C)C	Not Active		
C/C(=C\c1ccc(C(=O)O)cc1)c1cc2c(cc1C)C(C)(C)CCC2(C)C		0.645	0.032
